Data on 29 molecules can be found in ChEMBL document CHEMBL1130720, “Design, synthesis, and conformational analysis of a novel series of HIV protease inhibitors” (Bioorg Med Chem Lett, 1998).

SMILES strings stand for the structures.

The first assay has as its target T1, Human immunodeficiency virus type 1 protease (Human immunodeficiency virus 1, UniProt Q72874). The experiment in a line: Binding affinity to HIV-1 protease was determined.
The molecule `COc1ccc(S(=O)(=O)N(CC2CCCC2)C[C@@H](O)CN(CCc2ccccc2)C(=O)Cc2ccccc2)cc1` had an inhibitory constant (Ki) of 20 nM.

`COc1ccc(S(=O)(=O)N(CC2CCCC2)C[C@@H](O)CN(CCc2ccccc2)C(=O)OCc2cncs2)cc1`: the inhibitory constant (Ki) came out at 38 nM. In turn, `COc1ccc(S(=O)(=O)N(CC2CCCC2)C[C@@H](O)CN(Cc2ccccc2)C(=O)O[C@H]2CCOC2)cc1` displayed an inhibition constant Ki of 600 nM. `COc1ccc(S(=O)(=O)N(CC2CCCC2)C[C@@H](O)CN(CCc2ccccc2)C(=O)OC2CCCSC2)cc1` (some centres undefined) came in with a Ki of 300 nM.

As for `COc1ccc(S(=O)(=O)N(CC2CCCC2)C[C@@H](O)CN(CCc2ccccc2)C(=O)OC2CCCS(=O)(=O)C2)cc1` (some centres undefined), the Ki was 1400 nM. Same read-out and setting: in the case of `COc1ccc(S(=O)(=O)N(CC2CCCC2)C[C@@H](O)CN(CCc2ccccc2)C(=O)Cc2cccc(O)c2C)cc1` it was 66 nM. Same read-out and setting: as for `COc1ccc(S(=O)(=O)N(CC2CCCC2)C[C@@H](O)CN(CCc2ccccc2)C(=O)OC2COCOC2)cc1`, the figure is 15 nM; as for `COc1ccc(S(=O)(=O)N(CC2CCCC2)C[C@@H](O)CN(CCc2ccccc2)C(=O)O[C@H]2CCOC2)cc1`, 40 nM; as for `COc1ccc(S(=O)(=O)N(CC2CCCC2)C[C@@H](O)CN(CCc2ccccc2)C(=O)Oc2ccccc2)cc1`, 173 nM. On the same count and under the same terms, in the case of `COc1ccc(S(=O)(=O)N(CC2CCCC2)C[C@@H](O)CN(CCc2ccccc2)C(=O)OC2CCSC2)cc1` (some centres undefined) it was 104 nM.

On to `COc1ccc(S(=O)(=O)N(CC2CCCC2)C[C@@H](O)CN(CCc2ccccc2)C(=O)OC2CCS(=O)(=O)C2)cc1` (some centres undefined), for which the Ki was found to be 38 nM. This Ki is about 2.7-fold lower than that of the molecule before. Still for that read-out and setting: in the case of `COc1ccc(S(=O)(=O)N(CC2CCCC2)C[C@@H](O)CN(CCc2ccccc2)C(=O)Cc2cncc(NS(N)(=O)=O)c2)cc1` it was 220 nM; in that of `COc1ccc(S(=O)(=O)N(CC2CCCC2)C[C@@H](O)CN(CCc2ccccc2)C(=O)OC(C)(C)C)cc1`, 125 nM.

Molecule `COc1ccc(S(=O)(=O)N(CC2CCCC2)C[C@@H](O)CN(CCc2ccccc2)C(=O)O[C@@H]2CO[C@H]3OCC[C@H]32)cc1` returned a Ki of 50 nM. Still for that read-out and setting: as for `COc1ccc(S(=O)(=O)N(CC2CCCC2)C[C@@H](O)CN(CCc2ccccc2)C(=O)OCc2cccnc2)cc1`, the figure is 17 nM; as for `COc1ccc(S(=O)(=O)N(CC2CCCC2)C[C@@H](O)CN(CCc2ccccc2)C(=O)Cc2cccc(NS(N)(=O)=O)c2)cc1`, 29 nM; as for `COc1ccc(S(=O)(=O)N(CC2CCCC2)C[C@@H](O)CN(CCc2ccccc2)C(=O)CC2CCCC(NS(N)(=O)=O)C2)cc1` (some centres undefined), 76 nM. Still for that read-out and setting: in the case of `COc1ccc(S(=O)(=O)N(CC2CCCC2)C[C@@H](O)CN(CCc2ccccc2)C(=O)OCc2ccncc2)cc1` it was 200 nM; in that of `COc1ccc(S(=O)(=O)N(CC2CCCC2)C[C@@H](O)CN(CCc2ccccc2)C(=O)Cc2cccc(NS(N)(=O)=O)c2C)cc1`, 680 nM; in that of `COc1ccc(S(=O)(=O)N(CC2CCCC2)C[C@@H](O)CN(CCc2ccccc2)C(=O)Cc2ccncc2NS(N)(=O)=O)cc1`, 27 nM.

In the case of `COc1ccc(S(=O)(=O)N(CC(O)CN(CCc2ccccc2)C(=O)N[C@H](C(=O)OCc2ccccc2)C(C)C)CC2CCCC2)cc1` (single isomer, unassigned), affinity was put at a Ki of 7 nM.

Another assay addresses T1, Human immunodeficiency virus type 1 protease. The experiment in a line: Binding affinity against HIV-1 protease was determined.
On to `COc1ccc(S(=O)(=O)N(CC2CCCC2)C[C@@H](O)CN(CCc2ccccc2)C(=O)Nc2ccccc2)cc1`, for which the Ki is more than 20000 nM.

`CNC(=O)N(CCc1ccccc1)C[C@H](O)CN(CC1CCCC1)S(=O)(=O)c1ccc(OC)cc1`: the affinity corresponds to a Ki of 3400 nM. In the case of `COc1ccc(S(=O)(=O)N(CC2CCCC2)C[C@@H](O)CN(CCc2ccccc2)C(=O)NC(C)C)cc1`, the Ki was more than 10000 nM. `COc1ccc(S(=O)(=O)N(CC2CCCC2)C[C@@H](O)CN(CCc2ccccc2)C(=O)NC(C)(C)C)cc1` displayed a Ki of 2100 nM. The same measure, in the same setting: in the case of `COc1ccc(S(=O)(=O)N(CC2CCCC2)C[C@@H](O)CN(CCc2ccccc2)C(=O)N[C@H]2c3ccccc3C[C@H]2O)cc1` it was 43 nM; in that of `COc1ccc(S(=O)(=O)N(CC2CCCC2)C[C@@H](O)CN(CCc2ccccc2)C(=O)Nc2cccc(OC)c2)cc1`, more than 10000 nM. Same read-out and setting: in the case of `COc1ccc(S(=O)(=O)N(CC2CCCC2)C[C@@H](O)CN(CCc2ccccc2)C(=O)NC2CCc3ccccc32)cc1` (some centres undefined) it was more than 10000 nM. Same read-out and setting: as for `COc1ccc(S(=O)(=O)N(CC2CCCC2)C[C@@H](O)CN(CCc2ccccc2)C(=O)NCc2ccccc2)cc1`, the figure is 22 nM.
